Data published in ChEMBL document CHEMBL3044736, “Synthesis, characterization, solvatochromic properties, and antimicrobial evaluation of 5-acetyl-2-thioxo-dihydro-pyrimidine-4,6-dione-based chalcones” (2013).
Values after ≈ are worked out from the molar mass of the structure shown.

Tests used:
Assay type in all cases: functional
Pseudomonas aeruginosa [1] = test: Antimicrobial activity against Pseudomonas aeruginosa MTCC 1688 assessed as diameter of growth inhibition zone at 25 ug/ml after 18-24 hr by agar cup diffusion method; conditions: read-out: DIZ
Staphylococcus aureus [2] = test: Antimicrobial activity against Staphylococcus aureus MTCC 96 by agar cup diffusion method
Aspergillus clavatus [3] = test: Antimicrobial activity against Aspergillus clavatus MTCC 1323 assessed as diameter of growth inhibition zone at 250 ug/ml after 48-96 hr by agar cup diffusion method; conditions: read-out: DIZ
Pseudomonas aeruginosa [4] = test: Antimicrobial activity against Pseudomonas aeruginosa MTCC 1688 assessed as diameter of growth inhibition zone at 250 ug/ml after 18-24 hr by agar cup diffusion method; conditions: read-out: DIZ
Trichophyton rubrum [5] = test: Antimicrobial activity against Trichophyton rubrum MTCC 296 assessed as diameter of growth inhibition zone at 25 ug/ml after 48-96 hr by agar cup diffusion method; conditions: read-out: DIZ
Escherichia coli [6] = test: Antimicrobial activity against Escherichia coli MTCC 443 assessed as diameter of growth inhibition zone at 25 ug/ml after 18-24 hr by agar cup diffusion method; conditions: read-out: DIZ
Escherichia coli [7] = test: Antimicrobial activity against Escherichia coli MTCC 443 assessed as diameter of growth inhibition zone at 250 ug/ml after 18-24 hr by agar cup diffusion method; conditions: read-out: DIZ
Candida albicans [8] = test: Antimicrobial activity against Candida albicans MTCC 227 by agar cup diffusion method
Klebsiella pneumoniae [9] = test: Antimicrobial activity against Klebsiella pneumoniae MTCC 109 assessed as diameter of growth inhibition zone at 25 ug/ml after 18-24 hr by agar cup diffusion method; conditions: read-out: DIZ
Staphylococcus aureus [10] = test: Antimicrobial activity against Staphylococcus aureus MTCC 96 assessed as diameter of growth inhibition zone at 250 ug/ml after 18-24 hr by agar cup diffusion method; conditions: read-out: DIZ
Streptococcus pyogenes [11] = test: Antimicrobial activity against Streptococcus pyogenes MTCC 442 assessed as diameter of growth inhibition zone at 50 ug/ml after 18-24 hr by agar cup diffusion method; conditions: read-out: DIZ
Pseudomonas aeruginosa [12] = test: Antimicrobial activity against Pseudomonas aeruginosa MTCC 1688 by agar cup diffusion method
Klebsiella pneumoniae [13] = test: Antimicrobial activity against Klebsiella pneumoniae MTCC 109 assessed as diameter of growth inhibition zone at 250 ug/ml after 18-24 hr by agar cup diffusion method; conditions: read-out: DIZ
Aspergillus clavatus [14] = test: Antimicrobial activity against Aspergillus clavatus MTCC 1323 assessed as diameter of growth inhibition zone at 50 ug/ml after 48-96 hr by agar cup diffusion method; conditions: read-out: DIZ
Klebsiella pneumoniae [15] = test: Antimicrobial activity against Klebsiella pneumoniae MTCC 109 by agar cup diffusion method
Streptococcus pyogenes [16] = test: Antimicrobial activity against Streptococcus pyogenes MTCC 442 assessed as diameter of growth inhibition zone at 250 ug/ml after 18-24 hr by agar cup diffusion method; conditions: read-out: DIZ
Penicillium [17] = test: Antimicrobial activity against Penicillium wild strain assessed as diameter of growth inhibition zone at 100 ug/ml after 48-96 hr by agar cup diffusion method; conditions: read-out: DIZ
Penicillium [18] = test: Antimicrobial activity against Penicillium wild strain assessed as diameter of growth inhibition zone at 25 ug/ml after 48-96 hr by agar cup diffusion method; conditions: read-out: DIZ
Trichophyton rubrum [19] = test: Antimicrobial activity against Trichophyton rubrum MTCC 296 assessed as diameter of growth inhibition zone at 100 ug/ml after 48-96 hr by agar cup diffusion method; conditions: read-out: DIZ
Escherichia coli [20] = test: Antimicrobial activity against Escherichia coli MTCC 443 assessed as diameter of growth inhibition zone at 50 ug/ml after 18-24 hr by agar cup diffusion method; conditions: read-out: DIZ
Aspergillus clavatus [21] = test: Antimicrobial activity against Aspergillus clavatus MTCC 1323 assessed as diameter of growth inhibition zone at 25 ug/ml after 48-96 hr by agar cup diffusion method; conditions: read-out: DIZ
Penicillium [22] = test: Antimicrobial activity against Penicillium wild strain assessed as diameter of growth inhibition zone at 250 ug/ml after 48-96 hr by agar cup diffusion method; conditions: read-out: DIZ
Escherichia coli [23] = test: Antimicrobial activity against Escherichia coli MTCC 443 assessed as diameter of growth inhibition zone at 100 ug/ml after 18-24 hr by agar cup diffusion method; conditions: read-out: DIZ
Trichophyton rubrum [24] = test: Antimicrobial activity against Trichophyton rubrum MTCC 296 by agar cup diffusion method
Klebsiella pneumoniae [25] = test: Antimicrobial activity against Klebsiella pneumoniae MTCC 109 assessed as diameter of growth inhibition zone at 100 ug/ml after 18-24 hr by agar cup diffusion method; conditions: read-out: DIZ
Aspergillus clavatus [26] = test: Antimicrobial activity against Aspergillus clavatus MTCC 1323 assessed as diameter of growth inhibition zone at 100 ug/ml after 48-96 hr by agar cup diffusion method; conditions: read-out: DIZ
Staphylococcus aureus [27] = test: Antimicrobial activity against Staphylococcus aureus MTCC 96 assessed as diameter of growth inhibition zone at 100 ug/ml after 18-24 hr by agar cup diffusion method; conditions: read-out: DIZ
Streptococcus pyogenes [28] = test: Antimicrobial activity against Streptococcus pyogenes MTCC 442 assessed as diameter of growth inhibition zone at 100 ug/ml after 18-24 hr by agar cup diffusion method; conditions: read-out: DIZ
Trichophyton rubrum [29] = test: Antimicrobial activity against Trichophyton rubrum MTCC 296 assessed as diameter of growth inhibition zone at 250 ug/ml after 48-96 hr by agar cup diffusion method; conditions: read-out: DIZ
Candida albicans [30] = test: Antimicrobial activity against Candida albicans MTCC 227 assessed as diameter of growth inhibition zone at 100 ug/ml after 48-96 hr by agar cup diffusion method; conditions: read-out: DIZ
Aspergillus clavatus [31] = test: Antimicrobial activity against Aspergillus clavatus MTCC 1323 by agar cup diffusion method
Streptococcus pyogenes [32] = test: Antimicrobial activity against Streptococcus pyogenes MTCC 442 assessed as diameter of growth inhibition zone at 25 ug/ml after 18-24 hr by agar cup diffusion method; conditions: read-out: DIZ
Staphylococcus aureus [33] = test: Antimicrobial activity against Staphylococcus aureus MTCC 96 assessed as diameter of growth inhibition zone at 25 ug/ml after 18-24 hr by agar cup diffusion method; conditions: read-out: DIZ
Candida albicans [34] = test: Antimicrobial activity against Candida albicans MTCC 227 assessed as diameter of growth inhibition zone at 250 ug/ml after 48-96 hr by agar cup diffusion method; conditions: read-out: DIZ
Pseudomonas aeruginosa [35] = test: Antimicrobial activity against Pseudomonas aeruginosa MTCC 1688 assessed as diameter of growth inhibition zone at 100 ug/ml after 18-24 hr by agar cup diffusion method; conditions: read-out: DIZ
Penicillium [36] = test: Antimicrobial activity against Penicillium wild strain by agar cup diffusion method
Trichophyton rubrum [37] = test: Antimicrobial activity against Trichophyton rubrum MTCC 296 assessed as diameter of growth inhibition zone at 50 ug/ml after 48-96 hr by agar cup diffusion method; conditions: read-out: DIZ
Klebsiella pneumoniae [38] = test: Antimicrobial activity against Klebsiella pneumoniae MTCC 109 assessed as diameter of growth inhibition zone at 50 ug/ml after 18-24 hr by agar cup diffusion method; conditions: read-out: DIZ
Pseudomonas aeruginosa [39] = test: Antimicrobial activity against Pseudomonas aeruginosa MTCC 1688 assessed as diameter of growth inhibition zone at 50 ug/ml after 18-24 hr by agar cup diffusion method; conditions: read-out: DIZ
Escherichia coli [40] = test: Antimicrobial activity against Escherichia coli MTCC 443 by agar cup diffusion method
Candida albicans [41] = test: Antimicrobial activity against Candida albicans MTCC 227 assessed as diameter of growth inhibition zone at 25 ug/ml after 48-96 hr by agar cup diffusion method; conditions: read-out: DIZ
Streptococcus pyogenes [42] = test: Antimicrobial activity against Streptococcus pyogenes MTCC 442 by agar cup diffusion method
Candida albicans [43] = test: Antimicrobial activity against Candida albicans MTCC 227 assessed as diameter of growth inhibition zone at 50 ug/ml after 48-96 hr by agar cup diffusion method; conditions: read-out: DIZ
Staphylococcus aureus [44] = test: Antimicrobial activity against Staphylococcus aureus MTCC 96 assessed as diameter of growth inhibition zone at 50 ug/ml after 18-24 hr by agar cup diffusion method; conditions: read-out: DIZ
Penicillium [45] = test: Antimicrobial activity against Penicillium wild strain assessed as diameter of growth inhibition zone at 50 ug/ml after 48-96 hr by agar cup diffusion method; conditions: read-out: DIZ

O=C(/C=C/c1ccccc1)C1C(=O)NC(=S)NC1=O
zone of inhibition at 25 µg/mL (Pseudomonas aeruginosa [1]): 10 mm | MBC (Staphylococcus aureus [2]): 250 mg/L (≈ 911 µM) | MIC (Staphylococcus aureus [2]): 250 mg/L (≈ 911 µM) | zone of inhibition at 250 µg/mL (Aspergillus clavatus [3]): 24 mm | zone of inhibition at 250 µg/mL (Pseudomonas aeruginosa [4]): 17 mm | zone of inhibition at 25 µg/mL (Trichophyton rubrum [5]): 20 mm | zone of inhibition at 25 µg/mL (Escherichia coli [6]): 12 mm | zone of inhibition at 250 µg/mL (Escherichia coli [7]): 17 mm | MFC (Candida albicans [8]): 1000 mg/L (≈ 3650 µM) | MIC (Candida albicans [8]): 500 mg/L (≈ 1820 µM) | zone of inhibition at 25 µg/mL (Klebsiella pneumoniae [9]): 10 mm | zone of inhibition at 250 µg/mL (Staphylococcus aureus [10]): 17 mm | zone of inhibition at 50 µg/mL (Streptococcus pyogenes [11]): 15 mm | MBC (Pseudomonas aeruginosa [12]): 250 mg/L (≈ 911 µM) | MIC (Pseudomonas aeruginosa [12]): 250 mg/L (≈ 911 µM) | zone of inhibition at 250 µg/mL (Klebsiella pneumoniae [13]): 17 mm | zone of inhibition at 50 µg/mL (Aspergillus clavatus [14]): 19 mm | MBC (Klebsiella pneumoniae [15]): 250 mg/L (≈ 911 µM) | MIC (Klebsiella pneumoniae [15]): 200 mg/L (≈ 729 µM) | zone of inhibition at 250 µg/mL (Streptococcus pyogenes [16]): 17 mm | zone of inhibition at 100 µg/mL (Penicillium [17]): 22 mm | zone of inhibition at 25 µg/mL (Penicillium [18]): 19 mm | zone of inhibition at 100 µg/mL (Trichophyton rubrum [19]): 24 mm | zone of inhibition at 50 µg/mL (Escherichia coli [20]): 15 mm | zone of inhibition at 25 µg/mL (Aspergillus clavatus [21]): 18 mm | zone of inhibition at 250 µg/mL (Penicillium [22]): 24 mm | zone of inhibition at 100 µg/mL (Escherichia coli [23]): 15 mm | MFC (Trichophyton rubrum [24]): 1000 mg/L (≈ 3650 µM) | MIC (Trichophyton rubrum [24]): 1000 mg/L (≈ 3650 µM) | zone of inhibition at 100 µg/mL (Klebsiella pneumoniae [25]): 14 mm | zone of inhibition at 100 µg/mL (Aspergillus clavatus [26]): 21 mm | zone of inhibition at 100 µg/mL (Staphylococcus aureus [27]): 15 mm | zone of inhibition at 100 µg/mL (Streptococcus pyogenes [28]): 15 mm | zone of inhibition at 250 µg/mL (Trichophyton rubrum [29]): 25 mm | zone of inhibition at 100 µg/mL (Candida albicans [30]): 22 mm | MFC (Aspergillus clavatus [31]): 1000 mg/L (≈ 3650 µM) | MIC (Aspergillus clavatus [31]): 1000 mg/L (≈ 3650 µM) | zone of inhibition at 25 µg/mL (Streptococcus pyogenes [32]): 12 mm | zone of inhibition at 25 µg/mL (Staphylococcus aureus [33]): 10 mm | zone of inhibition at 250 µg/mL (Candida albicans [34]): 22 mm | zone of inhibition at 100 µg/mL (Pseudomonas aeruginosa [35]): 15 mm | MFC (Penicillium [36]): > 1000 mg/L | MIC (Penicillium [36]): 1000 mg/L (≈ 3650 µM) | zone of inhibition at 50 µg/mL (Trichophyton rubrum [37]): 24 mm | zone of inhibition at 50 µg/mL (Klebsiella pneumoniae [38]): 12 mm | zone of inhibition at 50 µg/mL (Pseudomonas aeruginosa [39]): 13 mm | MBC (Escherichia coli [40]): 500 mg/L (≈ 1820 µM) | MIC (Escherichia coli [40]): 250 mg/L (≈ 911 µM) | zone of inhibition at 25 µg/mL (Candida albicans [41]): 16 mm | MBC (Streptococcus pyogenes [42]): 500 mg/L (≈ 1820 µM) | MIC (Streptococcus pyogenes [42]): 250 mg/L (≈ 911 µM) | zone of inhibition at 50 µg/mL (Candida albicans [43]): 18 mm | zone of inhibition at 50 µg/mL (Staphylococcus aureus [44]): 13 mm | zone of inhibition at 50 µg/mL (Penicillium [45]): 21 mm
